Laboratory results: PubChem BioAssay AID330 (DTP/NCI, 2004)
Several values for one entry are separate records, joined by “and”; a condition that tells them apart may be missing. Equal entries are not always repeated. Inconclusive results and toxic doses are left out.

Test system: P388 leukemia ip, CD2F1 mice, survival T/C
Assay: NCI In Vivo Anticancer Drug Screen. Data for tumor model P388 Leukemia (intraperitoneal) in CD2F1 (CDF1) mice
Settings: endpoint: median survival time, higher = longer survival
Procedure, shortened: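 Mice carrying the transplanted tumor received test compound or vehicle. Survival was recorded in each group, and the value is the treated-group measurement divided by that of the vehicle-treated control group.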

[1] = dose: 50.0 mg/kg/injection, schedule: Q01DX009 (ip), vehicle: saline with Tween-80
[2] = dose: 100.0 mg/kg/injection, schedule: Q01DX009 (ip), vehicle: saline with Tween-80
[3] = dose: 6.25 mg/kg/injection, schedule: Q01DX009 (ip), vehicle: saline
[4] = dose: 12.5 mg/kg/injection, schedule: Q01DX009 (ip), vehicle: saline
[5] = dose: 60.0 mg/kg/injection, schedule: Q01DX005 (ip), vehicle: saline with Tween-80
[6] = dose: 120.0 mg/kg/injection, schedule: Q01DX005 (ip), vehicle: saline with Tween-80
[7] = dose: 240.0 mg/kg/injection, schedule: Q01DX005 (ip), vehicle: saline with Tween-80

In the case of `CCN1/C(=C/C=C/C=C\C=C\c2sc3ccc4ccccc4c3[n+]2CC)Sc2ccc3ccccc3c21`, the T/C (dose: 1.56 mg/kg/injection, schedule: Q04DX002 (ip), vehicle: saline with Tween-80) is reported as 153 % of control and 168 % of control, the T/C (dose: 3.12 mg/kg/injection, schedule: Q04DX002 (ip), vehicle: saline with Tween-80) is reported as 166 % of control and the T/C (dose: 6.25 mg/kg/injection, schedule: Q04DX002 (ip), vehicle: saline with Tween-80) is reported as 156 % of control and 171 % of control. The T/C (dose: 12.5 mg/kg/injection, schedule: Q04DX002 (ip), vehicle: saline with Tween-80) was 159 % of control and 171 % of control and 186 % of control.
With `CC/C(=N\Nc1cc(C)[nH]c(=O)c1)c1ccccc1` the T/C (dose: 100.0 mg/kg/injection, schedule: Q01DX001 (ip), vehicle: saline with Tween-80) was 98 % of control, the T/C (dose: 200.0 mg/kg/injection, schedule: Q01DX001 (ip), vehicle: saline with Tween-80) was 86 % of control and the T/C (dose: 400.0 mg/kg/injection, schedule: Q01DX001 (ip), vehicle: saline with Tween-80) was 89 % of control.
For `COc1cc2c(cc1C(C)c1ccc(OCc3ccccc3)cc1)OCO2` (stereo unspecified), the T/C (dose: 25.0 mg/kg/injection, schedule: Q01DX005 (ip), vehicle: distilled water + Tween-80) was 99 % of control, the T/C (dose: 50.0 mg/kg/injection, schedule: Q01DX005 (ip), vehicle: distilled water + Tween-80) was 98 % of control and the T/C (dose: 100.0 mg/kg/injection, schedule: Q01DX005 (ip), vehicle: distilled water + Tween-80) was 90 % of control and 94 % of control. For the same molecule, the T/C (dose: 200.0 mg/kg/injection, schedule: Q01DX005 (ip), vehicle: distilled water + Tween-80) was 90 % of control and 91 % of control.
In the case of `CN(C)CCO[Si](C)(C)C[Si](C)(C)OCCN(C)C`, the T/C (dose: 60.0 mg/kg/injection, schedule: Q01DX005 (ip), vehicle: saline) is reported as 107 % of control, the T/C (dose: 120.0 mg/kg/injection, schedule: Q01DX005 (ip), vehicle: saline) is reported as 102 % of control and the T/C (dose: 240.0 mg/kg/injection, schedule: Q01DX005 (ip), vehicle: saline) is reported as 108 % of control.
In the case of `CC(NC(=O)OCc1ccccc1)C(=O)NC(CCC(=O)O)C(=O)O` (stereo unspecified), the T/C (dose: 50.0 mg/kg/injection, schedule: Q01DX005 (ip), vehicle: saline) is reported as 97 % of control, the T/C (dose: 100.0 mg/kg/injection, schedule: Q01DX005 (ip), vehicle: saline) is reported as 101 % of control and the T/C (dose: 200.0 mg/kg/injection, schedule: Q01DX005 (ip), vehicle: saline) is reported as 106 % of control.
With `COc1ccc2cc1Oc1cc3c(cc1OC)CC[N+](C)(C)C3Cc1ccc(cc1)Oc1c(OC)c(OC)cc3c1C(C2)[N+](C)(C)CC3` (stereo unspecified) the T/C (dose: 0.03 mg/kg/injection, schedule: Q01DX009 (ip), vehicle: saline) was 102 % of control and 106 % of control, the T/C (dose: 0.07 mg/kg/injection, schedule: Q01DX009 (ip), vehicle: saline) was 100 % of control and 113 % of control and the T/C (dose: 0.15 mg/kg/injection, schedule: Q01DX009 (ip), vehicle: saline) was 105 % of control and 106 % of control and 121 % of control. For the same molecule, the T/C (dose: 0.31 mg/kg/injection, schedule: Q01DX009 (ip), vehicle: saline) was 105 % of control and 112 % of control and 96 % of control and the T/C (dose: 0.62 mg/kg/injection, schedule: Q01DX009 (ip), vehicle: saline) was 118 % of control.
`CSC(SC)(SC)C(=O)N(C)C` was tested, and the T/C (dose: 25.0 mg/kg/injection, schedule: Q01DX009 (ip), vehicle: saline with Tween-80) was 95 % of control, the T/C [1] was 93 % of control and the T/C [2] was 96 % of control.
With `CN(C)C12CCCCCC1S(=O)(=O)C2` (stereo unspecified) the T/C [1] was 94 % of control and the T/C [2] was 94 % of control.
`CCCCCCCC[N+]1(CC)CCCCC1` was tested, and the T/C (dose: 3.12 mg/kg/injection, schedule: Q01DX009 (ip), vehicle: saline) was 104 % of control, the T/C [3] was 109 % of control and the T/C [4] was 109 % of control.
`O=C(Cn1ccnc1[N+](=O)[O-])N(CCO)CCO` was tested, and the T/C [3] was 102 % of control, the T/C [4] was 111 % of control and the T/C (dose: 25.0 mg/kg/injection, schedule: Q01DX009 (ip), vehicle: saline) was 111 % of control. The T/C (dose: 50.0 mg/kg/injection, schedule: Q01DX009 (ip), vehicle: saline) was 105 % of control, the T/C (dose: 100.0 mg/kg/injection, schedule: Q01DX009 (ip), vehicle: saline) was 105 % of control and the T/C (dose: 200.0 mg/kg/injection, schedule: Q01DX009 (ip), vehicle: saline) was 102 % of control. For the same molecule, the T/C (dose: 400.0 mg/kg/injection, schedule: Q01DX009 (ip), vehicle: saline) was 105 % of control and the T/C (dose: 800.0 mg/kg/injection, schedule: Q01DX009 (ip), vehicle: saline) was 102 % of control.
In the case of `O=S(=O)(N=N/C=C1\C=CC=CN1O)c1cccs1`, the T/C (dose: 50.0 mg/kg/injection, schedule: Q04DX002 (ip), vehicle: saline with Tween-80) is reported as 100 % of control and the T/C (dose: 600.0 mg/kg/injection, schedule: Q04DX002 (ip), vehicle: saline with Tween-80) is reported as 117 % of control.
In the case of `O=C(O)c1c(Cl)c(Cl)c(Cl)c(Cl)c1-c1c2ccc(=O)cc-2oc2cc(O)ccc12`, the T/C [5] is reported as 100 % of control, the T/C [6] is reported as 100 % of control and the T/C [7] is reported as 96 % of control.
For `COc1cccc(C(Nc2nncs2)Nc2nncs2)c1[N+](=O)[O-]`, the T/C [5] was 98 % of control, the T/C [6] was 98 % of control and the T/C [7] was 101 % of control.
